Entries after “also recorded” stand apart in the source; their conditions may differ.
Assays:
[1] = system: clinical Candida isolates (C. albicans, C. krusei, C. tropicalis, C. glabrata, C. parapsilosis); experiment: Broth microdilution, MIC summarised over all clinical Candida isolates; type: cell-based; conditions: range or bound over all tested isolates of five Candida species; read-out: total minimum inhibitory concentration (MICTI)
Method: The present inventors have discovered that 1-amino-5-isocyanonaphthalene (ICAN) and its derivatives exert excellent antifungal activity against a broad range of Candida species. […] Nevertheless, proper formulation and/or substitution with solubility enhancer groups on the naphthalene core may increase its effectiveness. Based on MIC values (MICPI=0.04−0.3 μg/ml MICTI=0.6 μg/ml) and its low cytotoxicity 1,1-N-dimethylamino-5-isocyanonaphthalene (DIMICAN) was selected to be tested on clinical Candida isolates. […] Amphotericin B (AMB) is an antifungal agent which is effective against a number of medically important fungi. The in vivo applicability of DIMICAN was tested on immunosuppressed mice and control experiments were also conducted with amphotericin B. In the model of acute invasive candidiasis, neutropenic mice were infected intravenously with C. albicans isolate 3666 (3×10^4 cfu/mouse) to establish an acute infection, and all untreated control animals died within 6 days. […]
The tested C. albicans, C. tropicalis, C. parapsilosis, C. glabrata and C. krusei ATCC strains and clinical isolates are listed in Table 2. MICs were determined according to the CLSI M27-A3 [22]. […] MICs were read visually after 48-h incubation at 35° C. using the partial (50%) inhibition (for ICAN derivatives) (PI) and total inhibition (for AMB and ICAN derivatives) (TI) criteria. MICs were determined at least twice. […]

[2] = system: C. glabrata isolates; experiment: CLSI M27-A3 broth microdilution on Candida isolates (Table 2); type: cell-based
Method: (§1) The tested C. albicans, C. tropicalis, C. parapsilosis, C. glabrata and C. krusei ATCC strains and clinical isolates are listed in Table 2. MICs were determined according to the CLSI M27-A3 [22]. Antifungal agents were dissolved in 100% DMSO and diluted further in RPMI-1640 (with L-glutamine but without bicarbonate) (Sigma, Budapest, Hungary), and buffered to pH 7.0 with 0.165 M morpholinopropanesulfonic acid (MOPS; Sigma, Budapest, Hungary). The final concentration ranges used for AMB and ICAN derivatives were 0.125 to 4 μg/ml and 0.04 to 20 μg/ml, respectively. Yeast cell suspensions were prepared in RPMI 1640 medium and were adjusted to give a final inoculum concentration of 0.5×10^3 to 2.5×10^3 cells/ml. MICs were read visually after 48-h incubation at 35° C. using the partial (50%) inhibition (for ICAN derivatives) (PI) and total inhibition (for AMB and ICAN derivatives) (TI) criteria. MICs were determined at least twice. For amphotericin B isolates with MIC values of ≤2 mg/L were considered wild-types. [Pfaller M A, 2012]

[3] = system: C. parapsilosis isolates; experiment: as above; type: cell-based
Method: as §1

[4] = system: C. krusei isolates; experiment: as above; type: cell-based
Method: as §1

[5] = system: C. tropicalis isolates; experiment: as above; type: cell-based
Method: as §1

[6] = system: C. albicans isolates; experiment: as above; type: cell-based
Method: as §1

[7] = system: C. albicans isolate 3666; experiment: Murine model, kidney fungal burden; type: in vivo, BALB/c mice; conditions: immunosuppressed mice, 10^4 cfu/mouse iv
Method: During an independent in vivo experiment mice were infected intravenously with C. albicans isolate 3666. The infected mice were euthanized 2 or 6 days after infection (n=5 and 6 mice/time point, respectively), as disclosed herein, to determine the fungal burdens in the kidneys. Kidney burden was analyzed using a Kruskal-Wallis test with Dunn's posttest for multiple comparisons [Foldi R 2012, Kovacs R 2014]. Results of fungal burden experiments are shown on FIGS. 3b and c. […] It is well seen in […], that on day 6. the fungal burden increased by an order of magnitude (from −10^5 to −10^6) in the case of the untreated mice, while in the case of DIMICAN it remained the same as it was on day 2. The same is valid for AMB.
We used 10-12 week-old female BALB/c mice for all experiments. Mice were immunosuppressed using 150 mg/kg intraperitoneal (ip) cyclophosphamide dose (4 days prior to infection) and 100 mg/kg ip cyclophosphamide dose (1 day prior to infection; 2 and 5 days after infection) [Spellberg B, 2005]. All mice received ceftazidime (5 mg/day subcutaneously) from days 0 to 6 after infection. Mice were given food and water ad libitum and were monitored daily. The animals were maintained in accordance with the Guidelines for the Care and Use of Laboratory Animals, and the experiments were approved by the Animal Care Committee of the University of Debrecen, Debrecen, Hungary (permission no. 12/2014).
Mice were infected via the lateral tail vein with C. albicans 3666 bloodstream isolate. In the lethality (10 mice/group) and fungal tissue burden experiments (6 mice/group) the infectious doses were 3×10^4 and 10^4 cfu/mouse, respectively. These doses led to 100% and 0% mortality, respectively by day 6 after infection among untreated mice. Inoculum density was confirmed by plating serial dilutions onto Sabouraud dextrose agar (SDA) plates.
AMB (Fungizone, commercial preparation) and DIMICAN treatment in a 0.5-ml bolus was started 1 h after infection. The doses were 1 mg AMB and 5 mg DIMICAN (in olive oil/water (o/w) emulsion) per kg body weight. All antifungals were administered intraperitoneally once daily for 5 consecutive days.
Infected mice were euthanized 2 or 6 days after infection (n=6 mice/time point) to determine the fungal burden in the kidney. […] Aliquots of 0.1 ml of the undiluted and diluted homogenates were plated onto SDA, and the colony count was determined after 48 h. Colony-forming units (CFUs) were determined after 48 h of incubation at 37° C. and results were expressed as cfus/g tissue [Spellberg B, 2005]. […]
Survival effects were analyzed by the Kaplan—Meier log-rank test. Kidney burden was analysed using a Kruskal—Wallis test with Dunn's posttest for multiple comparisons [Foldi R 2012, Kovacs R 2014].

C[C@@H]1[C@H](O)[C@@H](C)/C=C/C=C/C=C/C=C/C=C/C=C/C=C/[C@H](O[C@@H]2O[C@H](C)[C@@H](O)[C@H](N)[C@@H]2O)C[C@@H]2O[C@](O)(C[C@@H](O)C[C@@H](O)[C@H](O)CC[C@@H](O)C[C@@H](O)CC(=O)O[C@H]1C)C[C@H](O)[C@H]2C(=O)O [AMB, Amphotericin B, reference compound]
MIC [1]: ≤ 2 µg/mL
MICTI ([2]; isolate 14408): 0.5 µg/mL
MICTI ([2]; isolate 14559): 0.5 µg/mL
MICTI ([2]; isolate 22394): 0.5 µg/mL
MICTI ([2]; isolate 23429): 1 µg/mL
MICTI ([2]; isolate 23481): 1 µg/mL
MICTI ([2]; isolate 27643): 0.5 µg/mL
MICTI ([2]; isolate 28557): 0.5 µg/mL
MICTI ([2]; isolate ATCC 90030): 0.5 µg/mL
MICTI ([3]; isolate 4133): 0.25 µg/mL
MICTI ([3]; isolate 9613): 0.25 µg/mL
MICTI ([3]; isolate 10252): 0.5 µg/mL
MICTI ([3]; isolate 18154): 0.5 µg/mL
MICTI ([3]; isolate 27001): 0.25 µg/mL
MICTI ([3]; isolate ATCC 22019): 0.5 µg/mL
MICTI ([4]; isolate 749): 1 µg/mL
MICTI ([4]; isolate 1853): 1 µg/mL
MICTI ([4]; isolate 4364): 1 µg/mL
MICTI ([4]; isolate 5029): 1 µg/mL
MICTI ([4]; isolate 5072): 1 µg/mL
MICTI ([4]; isolate 25504): 0.5 µg/mL
MICTI ([4]; isolate 34987): 1 µg/mL
MICTI ([4]; isolate ATCC 6258): 1 µg/mL
MICTI ([5]; isolate 579): 0.5 µg/mL
MICTI ([5]; isolate 622): 1 µg/mL
MICTI ([5]; isolate 1776): 1 µg/mL
MICTI ([5]; isolate 2467): 0.5 µg/mL
MICTI ([5]; isolate 3014): 0.5 µg/mL
MICTI ([5]; isolate 5115): 0.5 µg/mL
MICTI ([5]; isolate 5806): 0.25 µg/mL
MICTI ([5]; isolate ATCC 750): 0.5 µg/mL
MICTI ([6]; isolate 456): 0.5 µg/mL
MICTI ([6]; isolate 665): 1 µg/mL
MICTI ([6]; isolate 685): 0.25 µg/mL
MICTI ([6]; isolate 720): 0.5 µg/mL
MICTI ([6]; isolate 963): 0.5 µg/mL
MICTI ([6]; isolate 1544): 0.25 µg/mL
MICTI ([6]; isolate 3666): 0.5 µg/mL
MICTI ([6]; isolate 8658): 1 µg/mL
MICTI ([6]; isolate ATCC 10231): 0.25 µg/mL
effect on kidney fungal burden, six days after infection ([7]; 5 mg/kg DIMICAN or 1 mg/kg AMB ip once daily for 5 days, p<0.05 (AMB), p<0.001 (DIMICAN) vs control): efficient; also recorded: significantly lower fungal burden
effect on kidney fungal burden, two days after infection ([7]; 5 mg/kg DIMICAN or 1 mg/kg AMB ip once daily, P>0.05 vs control): no effect on fungal load

Source: patent US20230048678A1, “ICAN DERIVATIVES FOR ANTIFUNGAL USE” (DEBRECENI EGYETEM, priority 2019, published 2023)
